According to US20250289785A1, “INDOLE DERIVATIVE, METHOD FOR PREPARING SAME, AND USE THEREOF” (MITOIMMUNE THERAPEUTICS INC., priority 2021, published 2025):

What follows are compounds tested on H9C2 cells (assay: Cell protection effect against t-BHP in heart cells (LDH release)). Settings: H9C2, t-BHP 40 μM, 2 hours.
Type: cell-based
Description: In order to identify the protective effect with regard to heart cells, H9C2 cells were divided into 96-well plates by 1.5×10^4, and cultured for 24 hours. The respective wells were treated with compounds of the examples 3× serial diluted to final concentrations of […], then cultured for 15 to 20 minutes. After treating with t-BHP with a final concentration of 40 μM, culturing was performed for 2 hours. In order to identify the protective effect of each compound, a Cytotoxicity LDH assay kit [Dojindo; CK12] was used to measure the degree of extracellular secretion of LDH. To describe briefly, at the time point 2-hour treatment of the cells with t-BHIP was completed, 100 μL each of the supernatant in which the cells were placed was collected and moved to a new 96-well plate. 100 μL/well of the assay buffer included in the kit (same amount as the sample) was added, followed by wrapping with foil and reacting for 30 minutes at room temperature. Observing the change in color of the sample, 50 μL/well of stop solution was added, then an iD3 spectrometer was used to measure absorbance at 490 nm and calculate the EC50 values. The EC50 of the compounds of the examples is preferably no more than 1.0 μM, and more preferably no more than 0.3 μM.

SMILES | EC50 [nM]
CC(C)(C)OCc1cc(NC2CCOCC2)c2[nH]c(-c3ccccc3)cc2c1 [Example 15, 5-(tert-butoxymethyl)-2-phenyl-N-tetrahydropyran-4-yl-1H-indol-7-amine] | ≤ 300
CC(C)(C)OCc1cc(NC2CCCC2)c2[nH]c(-c3ccccc3)cc2c1 [Example 16, 5-(tert-butoxymethyl)-N-cyclopentyl-2-phenyl-1H-indol-7-amine] | ≤ 300
CC(C)(C)OCc1cc(N(C2CCCC2)C2CCCC2)c2[nH]c(-c3ccccc3)cc2c1 [Example 17, 5-(tert-butoxymethyl)-N,N-dicyclopentyl-2-phenyl-1H-indol-7-amine] | ≤ 300
CCOCc1cc(NC2CCOCC2)c2[nH]c(-c3ccccc3)c(C#N)c2c1 [Example 24, 5-(ethoxymethyl)-2-phenyl-7-((tetrahydro-2H-pyran-4-yl)amino)-1H-indole-3-carbonitrile] | 300 to 1000
CCOCc1cc(N(C2CCOCC2)C2CCOCC2)c2[nH]c(-c3ccccc3)c(/C=N/OC)c2c1 [Example 26, (E)-7-(bis(tetrahydro-2H-pyran-4-yl)amino)-5-(ethoxymethyl)-2-phenyl-1H-indole-3-carbaldehyde O-methyl Oxime] | > 1000
CCOCc1cc(NC2CCCC2)c2c(c1)c(COC)c(-c1ccccc1)n2C [Example 28, N-cyclopentyl-5-(ethoxymethyl)-3-(methoxymethyl)-1-methyl-2-phenyl-1H-indol-7-amine] | 300 to 1000
CCOCc1cc(NC2CCOCC2)c2[nH]c(-c3ccccc3)c(C(=O)C(F)(F)F)c2c1 [Example 33, 1-(5-(ethoxymethyl)-2-phenyl-7-((tetrahydro-2H-pyran-4-yl)amino)-1H-indol-3-yl)-2,2,2-trifluoro-1-one] | 300 to 1000
CCOCc1cc(NC2CCCC2)c2[nH]c(-c3ccccc3)c(C(O)C(F)(F)F)c2c1 (stereo not drawn) [Example 36, 1-(7-(cyclopentylamino)-5-(ethoxymethyl)-2-phenyl-1H-indol-3-yl)-2,2,2-trifluoroethan-1-ol] | ≤ 300
CCOCc1cc(NC2CCOCC2)c2[nH]c(-c3ccccc3)c(C(O)C(F)(F)F)c2c1 (stereo not drawn) [Example 37, 1-(5-(ethoxymethyl)-2-phenyl-7-((tetrahydro-2H-pyran-4-yl)amino)-1H-indol-3-yl)-2,2,2-trifluoro-1-ol] | 300 to 1000
CCOCc1cc(NC2CCCC2)c2[nH]c(-c3ccccc3)c(CCC(=O)OC)c2c1 [Example 38, Methyl 3-(7-(cyclopentylamino)-5-(ethoxymethyl)-2-phenyl-1H-indol-3-yl)propanoate] | ≤ 300
CCOCc1cc(NC2CCOCC2)c2[nH]c(-c3ccccc3)c(CCC(=O)OC)c2c1 [Example 39, Methyl 3-(5-(ethoxymethyl)-2-phenyl-7-((tetrahydro-2H-pyran-4-yl)amino)-1H-indol-3-yl)propanoate] | ≤ 300
CCOCc1cc(NC2CCCC2)c2[nH]c(-c3ccccc3)c(CCC(=O)O)c2c1 [Example 40, 3-(7-(cyclopentylamino)-5-(ethoxymethyl)-2-phenyl-1H-indol-3-yl)propanoic acid] | > 1000
COCCc1cc(NC2CCCC2)c2[nH]c(-c3ccccc3)cc2c1 [Example 42, N-cyclopentyl-5-(2-methoxyethyl)-2-phenyl-1H-indol-7-amine] | ≤ 300
CCOCc1cc(NC2CCCC2)c2[nH]c(-c3ccccc3)c(-c3nccn3C(=O)OCC)c2c1 [Example 43, Ethyl 2-(7-(cyclopentylamino)-5-(ethoxymethyl)-2-phenyl-1H-indol-3-yl)-1H-imidazole-1-carboxylate] | 300 to 1000
CCOCc1cc(NC2CCOCC2)c2[nH]c(-c3ccccc3)c(-c3nccn3C(=O)OCC)c2c1 [Example 44, ethyl 2-(5-(ethoxymethyl)-2-phenyl-7-((tetrahydro-2H-pyran-4-yl)amino)-1H-indol-3-yl)-1H-imidazole-1-carboxylate] | > 1000
CCOCc1cc(NC2CCCC2)c2[nH]c(-c3ccccc3)c(-c3ncc[nH]3)c2c1 [Example 45, N-cyclopentyl-5-(ethoxymethyl)-3-(1H-imidazol-2-yl)-2-phenyl-1H-indol-7-amine] | 300 to 1000

Next, values leading:

EC50 [nM] | SMILES
≤ 300 | COCc1cc(NCC2CCOCC2)c2[nH]c(-c3ccccc3)cc2c1 [Example 3, 5-(methoxymethyl)-2-phenyl-N-(tetrahydropyran-4-ylmethyl)-1H-indol-7-amine]
≤ 300 | COCc1cc(NC2CCS(=O)(=O)CC2)c2[nH]c(-c3ccccc3)cc2c1 [Example 4, N-(1,1-dioxothian-4-yl)-5-(methoxymethyl)-2-phenyl-1H-indol-7-amine]
≤ 300 | COCc1cc(NC2CCN(S(C)(=O)=O)CC2)c2[nH]c(-c3ccccc3)cc2c1 [Example 5, 5-(methoxymethyl)-N-(1-methylsulfonyl-4-piperidyl)-2-phenyl-1H-indol-7-amine]
≤ 300 | COCc1cc(NC2CCN(C(C)=O)CC2)c2[nH]c(-c3ccccc3)cc2c1 [Example 6, 1-[4-[[5-(methoxymethyl)-2-phenyl-1H-indol-7-yl]amino]-1-piperidyl]ethanone]
≤ 300 | COCc1cc(NC2CCC(F)(F)CC2)c2[nH]c(-c3ccccc3)cc2c1 [Example 7, N-(4,4-difluorocyclohexyl)-5-(methoxymethyl)-2-phenyl-1H-indol-7-amine]
≤ 300 | COCc1cc(NCc2ccccc2)c2[nH]c(-c3ccccc3)cc2c1 [Example 8, N-benzyl-5-(methoxymethyl)-2-phenyl-1H-indol-7-amine]
≤ 300 | COCc1cc(NC2CCN(C(=O)OC(C)(C)C)CC2)c2[nH]c(-c3ccccc3)cc2c1 [Example 9, tert-butyl 4-[[5-(methoxymethyl)-2-phenyl-1H-indol-7-yl]amino]-piperidine-1-carboxylate]
≤ 300 | COCc1cc(NC(C)C)c2[nH]c(-c3ccccc3)cc2c1 [Example 10, N-isopropyl-5-(methoxymethyl)-2-phenyl-1H-indol-7-amine]
≤ 300 | COCc1cc(NC2CCN(C)CC2)c2[nH]c(-c3ccccc3)cc2c1 [Example 11, 5-(methoxymethyl)-N-(1-methyl-4-piperidyl)-2-phenyl-1H-indol-7-amine]
≤ 300 | COCCNc1cc(COC)cc2cc(-c3ccccc3)[nH]c12 [Example 12, N-(2-methoxyethyl)-5-(methoxymethyl)-2-phenyl-1H-indol-7-amine]
≤ 300 | COCCCNc1cc(COC)cc2cc(-c3ccccc3)[nH]c12 [Example 13, 5-(methoxymethyl)-N-(3-methoxypropyl)-2-phenyl-1H-indol-7-amine]
≤ 300 | COCc1cc(NC2CCOCC2)c2[nH]cc(-c3ccccc3)c2c1 [Example 18, 5-(methoxymethyl)-3-phenyl-N-tetrahydropyran-4-yl-1H-indol-7-amine]
≤ 300 | CCOCc1cc(NC2CCOCC2)c2[nH]c(-c3ccccc3)cc2c1 [Example 20, 5-(ethoxymethyl)-2-phenyl-N-(tetrahydro-2H-pyran-4-yl)-1H-indol-7-amine]
≤ 300 | CC(C)OCc1cc(NC2CCCC2)c2[nH]c(-c3ccccc3)cc2c1 [Example 21, N-cyclopentyl-5-(isopropoxymethyl)-2-phenyl-1H-indol-7-amine]
≤ 300 | CC(C)OCc1cc(NC2CCOCC2)c2[nH]c(-c3ccccc3)cc2c1 [Example 22, 5-(isopropoxymethyl)-2-phenyl-N-(tetrahydro-2H-pyran-4-yl)-1H-indol-7-amine]
≤ 300 | CCOCc1cc(NC2CCCC2)c2[nH]c(-c3ccccc3)c(C#N)c2c1 [Example 23, 7-(cyclopentylamino)-5-(ethoxymethyl)-2-phenyl-1H-indole-3-carbonitrile]
≤ 300 | CCOCc1cc(NC2CCCC2)c2[nH]c(-c3ccccc3)c(/C=N/OC)c2c1 [Example 25, (E)-7-(cyclopentylamino)-5-(ethoxymethyl)-2-phenyl-1H-indole-3-carbaldehyde O-methyl oxime]
≤ 300 | CCOCc1cc(NC2CCOCC2)c2[nH]c(-c3ccccc3)c(/C=N/OC)c2c1 [Example 27]
≤ 300 | CCOCc1cc(NC2CCCC2)c2[nH]c(-c3ccccc3)c(/C=C/C(=O)OC)c2c1 [Example 30, methyl (E)-3-(7-(cyclopentylamino)-5-(ethoxymethyl)-2-phenyl-1H-indol-3-yl)acrylate]
≤ 300 | CCOCc1cc(NC2CCOCC2)c2[nH]c(-c3ccccc3)c(/C=C/C(=O)OC)c2c1 [Example 31, Methyl (E)-3-(5-(ethoxymethyl)-2-phenyl-7-((tetrahydro-2H-pyran-4-yl)amino)-1H-indole-3-yl)acrylate]
≤ 300 | CCOCc1cc(NC2CCCC2)c2[nH]c(-c3ccccc3)c(C(=O)C(F)(F)F)c2c1 [Example 32, 1-(7-(cyclopentylamino)-5-(ethoxymethyl)-2-phenyl-1H-indol-3-yl)-2,2,2-trifluoroethan-1-one]
≤ 300 | CCOCc1cc(NC2CCCC2)c2[nH]c(-c3ccccc3)c(/C=C/C(=O)c3ccccc3)c2c1 [Example 34, (E)-3-(7-(cyclopentylamino)-5-(ethoxymethyl)-2-phenyl-1H-indol-3-yl)-1-phenylpropan-2-ene-1-one]
≤ 300 | CCOCc1cc(NC2CCOCC2)c2[nH]c(-c3ccccc3)c(/C=C/C(=O)c3ccccc3)c2c1 [Example 35, (E)-3-(5-(ethoxymethyl)-2-phenyl-7-((tetrahydro-2H-pyran-4-yl)amino)-1H-indol-3-yl)-1-phenylpropan-2-en-1-one]
